According to US8314150B2, “Kinase protein binding inhibitors” (priority 2008, dated 2012):

Test system: FAK wildtype fibroblasts (MEFs)
Experiment: MTT cell viability assay, FAK wildtype vs FAK null fibroblasts
Format: cell-based
Details: 72 hours, p<0.05
Procedure: The 3-(4,5-dimethylthiazol-2-yl)-5-(3-carboxymethoxyphenyl)-2-(4-sulfophenyl)-2H-tetrazolium compound from Promega Viability kit (Madison, Ill.) was added, and the cells were incubated at 37° C. for 1-2 hours. The optical density on 96-plate was analyzed with a microplate reader at 490 nm to determine cell viability. In addition, cells were stained with trypan blue after 24 hours of treatment with Y15 and the percent of cells that stained positive were determined with a hemacytometer. Cell adhesion assay—The poly-L-Lysine or Collagen (5 μg/ml) coated 96-well plates were blocked with the blocking buffer (medium with 0.5% BSA) for 1 hour at 37 C. […] Then 2% SDS was added to the dried plated and OD at 590 nm was measured for detecting cell adhesion. […] Protein concentrations were determined using a Bio-Rad Kit. The boiled samples were loaded on Ready SDS-10% PAGE gels (Bio Rad, Inc) and used for Western blot analysis with the protein-specific antibody. […] Detachment Assay—Cells were plated with and without inhibitors for 24 hours, and detached and attached cells were counted in a hemocytometer. We calculated the percent of detachment by dividing the number of detached cells by the total number of cells. The percent of detached cells was calculated in three independent experiments. […] For each experiment 300 cells per treatment were counted. […]

Cl.Cl.Cl.Cl.Nc1cc(N)c(N)cc1N [Y15, 1,2,4,5-benzenetetraamine tetrahydrochloride]
dose from which viability of FAK wildtype fibroblasts decreased compared to FAK null fibroblasts: 0.1 µM
